Assay results published in article PMC10584170, “Machine learning-based phenotypic imaging to characterise the targetable biology of Plasmodium falciparum male gametocytes for the development of transmission-blocking antimalarials” (PLOS Pathogens, 2023).
pIC50: −log10 of the molar value. Like-named read-outs stand apart in the source and are kept apart here.

Columns and labels:
[1] = tested on: P. falciparum male gametocytes; assay: P. falciparum Dual Gamete Formation Assay (PfDGFA), male readout (exflagellation); assay type: cell-based, Plasmodium falciparum NF54; conditions: for Average inhibition male (%) / % inhibition male (individual replicates) R1 / % inhibition male (individual replicates) R3 / % inhibition male (individual replicates) R4: 24h preincubation with gametocytes; for Average inhibition male (%): average of replicates; for % inhibition male (individual replicates) R1: replicate R1; for % inhibition male (individual replicates) R3: replicate R3; for % inhibition male (individual replicates) R4: replicate R4; for Selectivity Ratio M: HepG2 Tox50 versus male IC50; for pIC50: read-out: Male IC50; for HitlevelM: number of replicates with >50% inhibition in the male readout
Summary of the method: (§1)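 First, day-14 P. falciparum NF54 gametocytes receive compound for 24 h at 37°C in 1% O2/3% CO2. Next, ookinete medium with Cy3 anti-Pfs25 triggers gametogenesis at 28°C and male exflagellation is imaged. Finally, after 24 h in the dark, Cy3-labelled females are imaged.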

HepG2 cells = assay: HepG2 cytotoxicity counter-screen; conditions: cytotoxic activity against HepG2 cells
[2] = tested on: P. falciparum female gametocytes; assay: P. falciparum Dual Gamete Formation Assay (PfDGFA), female readout (Pfs25-positive female gametes); assay type: cell-based, Plasmodium falciparum NF54; conditions: for Average inhibition female (%) / % inhibition female (individual replicates) R1 / % inhibition female (individual replicates) R3 / % inhibition female (individual replicates) R4: 24h preincubation with gametocytes; for Average inhibition female (%): average of replicates; for % inhibition female (individual replicates) R1: replicate R1; for % inhibition female (individual replicates) R3: replicate R3; for % inhibition female (individual replicates) R4: replicate R4; for Selectivity ratio F: HepG2 Tox50 versus female IC50; for pIC50: read-out: Female IC50; for HitlevelF: number of replicates with >50% inhibition in the female readout
Summary of the method: as §1

[3] = PfDGFA, 24 h incubation with gametocytes before induction, exflagellation readout
[4] = PfDGFA, 24 h incubation with gametocytes before induction, female gamete readout
[5] = Plasmodium falciparum, read-out: % inhibition male (individual replicates) R1
[6] = Plasmodium falciparum, read-out: % inhibition male (individual replicates) R2
[7] = Plasmodium falciparum, read-out: % inhibition male (individual replicates) R4
[8] = Plasmodium falciparum, read-out: Average inhibition male (%)
[9] = Plasmodium falciparum, read-out: % inhibition female (individual replicates) R1
[10] = Plasmodium falciparum, read-out: % inhibition female (individual replicates) R2
[11] = Plasmodium falciparum, read-out: % inhibition female (individual replicates) R3
[12] = Plasmodium falciparum, read-out: % inhibition female (individual replicates) R4
[13] = Plasmodium falciparum, read-out: Average inhibition female (%)

Row | SMILES | Average inhibition male (%) ([1]; 2µM) | % inhibition male (individual replicates) R1 ([1]; 2µM) | % inhibition male (individual replicates) R3 ([1]; 2µM) | % inhibition male (individual replicates) R4 ([1]; 2µM) | Selectivity Ratio M [1] | pIC50 [1, 3] | Tox50 (HepG2 cells) | Average inhibition female (%) ([2]; 2µM) | % inhibition female (individual replicates) R1 ([2]; 2µM) | % inhibition female (individual replicates) R3 ([2]; 2µM) | % inhibition female (individual replicates) R4 ([2]; 2µM) | Selectivity ratio F [2] | pIC50 [2, 4] | further results
1 | COc1ccc2c(CNCCCCCCNCc3c(OC)ccc4cc(OC)ccc34)c(OC)ccc2c1.CS(=O)(=O)O [TCMDC-137300] | 90.0% | 98.2% | 95.7% | 96.8% | 2.01 | 5.74 | 3.63 µM | 77.0% | 80.6% | 93.8% | 84.0% | 0.75 | 5.31 | 
2 | CS(=O)(=O)O.FC(F)(F)COc1ccc2ccccc2c1CCNCCCCNCCc1c(OCC(F)(F)F)ccc2ccccc12 [TCMDC-137317] |  |  |  |  | 0.53 | 5.82 | 0.8 µM |  |  |  |  | 0.26 | 5.52 | Average inhibition male (%) ([1]; PfDGFA at 2µM): 88.2%; % inhibition male (individual replicates) R1 ([1]; PfDGFA at 2µM): 92.7%; % inhibition male (individual replicates) R3 ([1]; PfDGFA at 2µM): 68.3%; % inhibition male (individual replicates) R4 ([1]; PfDGFA at 2µM): 96.2%; HitlevelM ([1]; 2µM): 4; Average inhibition female (%) ([2]; PfDGFA at 2µM): 40.6%; % inhibition female (individual replicates) R1 ([2]; PfDGFA at 2µM): 30.1%; % inhibition female (individual replicates) R3 ([2]; PfDGFA at 2µM): 13.1%; % inhibition female (individual replicates) R4 ([2]; PfDGFA at 2µM): 36.4%; HitlevelF ([2]; 2µM): 1
3 | C=CCOc1ccc2ccccc2c1CNCCCCCCNCc1c(OCC=C)ccc2ccccc12.CS(=O)(=O)O [TCMDC-137340] |  |  |  |  | 1.99 | 5.71 | 3.85 µM |  |  |  |  | 1.38 | 5.55 | Average inhibition male (%) ([1]; PfDGFA at 2µM): 87.7%; % inhibition male (individual replicates) R1 ([1]; PfDGFA at 2µM): 90.7%; % inhibition male (individual replicates) R3 ([1]; PfDGFA at 2µM): 68.3%; % inhibition male (individual replicates) R4 ([1]; PfDGFA at 2µM): 95.6%; HitlevelM ([1]; 2µM): 4; Average inhibition female (%) ([2]; PfDGFA at 2µM): 45.4%; % inhibition female (individual replicates) R1 ([2]; PfDGFA at 2µM): 35.2%; % inhibition female (individual replicates) R3 ([2]; PfDGFA at 2µM): 31.1%; % inhibition female (individual replicates) R4 ([2]; PfDGFA at 2µM): 51.0%; HitlevelF ([2]; 2µM): 2
4 | Cl.N=C(NCCCCC1CCCCC1)c1cccc(C(=N)NCCCCC2CCCCC2)n1 [TCMDC-137452] | 99.3% | 93.4% |  | 104.5% | 2.02 | 5.88 | 2.66 µM | 47.7% | 57.8% | 31.9% | 45.9% | 1.43 | 5.73 | 
5 | COc1cc(CNCCCCCCNCc2cc(OC)c3ccccc3c2OC)c(OC)c2ccccc12.CS(=O)(=O)O [TCMDC-137502] |  |  |  |  | 3.09 | 5.92 | 3.76 µM |  |  |  |  | 1.24 | 5.52 | Average inhibition male (%) ([1]; PfDGFA at 2µM): 85.1%; % inhibition male (individual replicates) R1 ([1]; PfDGFA at 2µM): 95.4%; % inhibition male (individual replicates) R3 ([1]; PfDGFA at 2µM): 87.5%; % inhibition male (individual replicates) R4 ([1]; PfDGFA at 2µM): 90.2%; HitlevelM ([1]; 2µM): 4; Average inhibition female (%) ([2]; PfDGFA at 2µM): 71.8%; % inhibition female (individual replicates) R1 ([2]; PfDGFA at 2µM): 79.7%; % inhibition female (individual replicates) R3 ([2]; PfDGFA at 2µM): 78.6%; % inhibition female (individual replicates) R4 ([2]; PfDGFA at 2µM): 84.0%; HitlevelF ([2]; 2µM): 3
6 | Clc1ccc(/N=C(/NCCCCCCCN/C(=N\c2ccc(Cl)cc2)Nc2ccc(Cl)cc2)Nc2ccc(Cl)cc2)cc1 [TCMDC-137529] | 95.0% | 95.9% |  | 94.9% | 2.06 | 5.95 | 2.3 µM | 51.0% | 61.8% | 39.3% | 54.5% | 1.6 | 5.84 | 
7 | CCCCCCC(N)c1ccc(OCCCOc2ccc(C(N)CCCCCC)cc2)cc1.Cl (centres unmarked) [TCMDC-137621] | 94.3% | 98.4% | 82.0% | 99.6% | 3.34 | 5.97 | 3.56 µM | 47.1% | 37.5% | 53.9% | 41.4% | 2.08 | 5.77 | 
8 | CC(CO)(CO)NCc1cc2c3ccccc3c(CNC(C)(CO)CO)cc2c2ccccc12.CS(=O)(=O)O [TCMDC-137752] |  |  |  |  | 14.99 |  | 13.04 µM |  |  |  |  | 2.72 |  | pIC50 ([1]; Plasmodium falciparum, 24 h): 6.06; inhibition at 2 µM [1, 5]: 93.1%; inhibition at 2 µM [1, 6]: 93.5%; inhibition at 2 µM ([1]; Plasmodium falciparum, read-out: % inhibition male (individual replicates) R3): 85.5%; inhibition at 2 µM [1, 7]: 90.9%; inhibition at 2 µM [1, 8]: 90.8%; pIC50 ([2]; Plasmodium falciparum, 24 h): 5.32; inhibition at 2 µM [2, 9]: 37.9%; inhibition at 2 µM [2, 10]: 48.4%; inhibition at 2 µM [2, 11]: 18.2%; inhibition at 2 µM [2, 12]: 48.2%; inhibition at 2 µM [2, 13]: 38.2%
9 | CCOc1c(CCNCCCCNCCc2ccc3ccccc3c2OCC)ccc2ccccc12.CS(=O)(=O)O [TCMDC-137759] | 92.2% | 95.9% | 97.8% | 100.2% | 2.62 | 5.88 | 3.44 µM | 82.4% | 86.3% | 88.2% | 86.8% | 1.48 | 5.63 | 
10 | CS(=O)(=O)O.CSc1ccc2ccccc2c1CCNCCCCNCCc1c(SC)ccc2ccccc12 [TCMDC-137763] | 90.7% | 94.6% | 73.0% | 98.9% | 2.67 | 5.85 | 3.73 µM | 55.5% | 47.6% | 28.5% | 71.9% | 1.79 | 5.68 | 
11 | CCC1=C[C@@H]2CN(C1)Cc1c([nH]c3ccccc13)[C@@](C(=O)OC)(c1cc3c(cc1OC)N(C)[C@H]1[C@@](O)(C(=O)OC)[C@H](O)[C@]4(CC)C=CCN5CC[C@]31[C@@H]54)C2.O=S(=O)(O)O [TCMDC-137769] |  |  |  |  | 5697.96 |  | 55.68 µM |  |  |  |  | 5.57 |  | pIC50 ([1]; Plasmodium falciparum, 24 h): 8.00; inhibition at 2 µM [1, 5]: 101%; inhibition at 2 µM [1, 6]: 99.3%; inhibition at 2 µM [1, 7]: 103%; inhibition at 2 µM [1, 8]: 101%; pIC50 ([2]; Plasmodium falciparum, 24 h): < 5.00; inhibition at 2 µM [2, 9]: 4.8%; inhibition at 2 µM [2, 10]: -7.3%; inhibition at 2 µM [2, 11]: 2.7%; inhibition at 2 µM [2, 12]: 9.5%; inhibition at 2 µM [2, 13]: 2.4%
12 | CC(=NNC(=S)NC(C)(C)C)c1ccccn1 [TCMDC-137783] | 101.1% | 99.9% | 98.6% | 104.2% | 0.9 | 6.96 | 0.1 µM | 58.4% | 41.7% | 38.4% | 72.1% | 0.11 | 6.01 | 
13 | COc1ccc2ccc(OC)c(CNCCCCCCNCc3c(OC)ccc4ccc(OC)cc34)c2c1.CS(=O)(=O)O [TCMDC-137796] | 93.5% | 89.3% | 82.0% | 102.2% | 2.84 | 5.84 | 4.07 µM | 38.4% | 29.7% | 9.8% | 40.9% | 1.12 | 5.44 | 
